Key:
[1] = test system: MDAMB231/U251; experiment: Anti-cancer screen (MTT), MDAMB231/U251; type: cell-based; conditions: MDAMB231/U251 cells, 48 hours; for GI50: concentration to decrease % growth by 50%; for IC100: concentration to decrease % growth by 100%, read-out: MDAMB231/U251 TGI; for LC50: concentration to decrease % growth by 150%
Procedure, shortened: (§1)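 HCT116, NCIH460 and U251 cells (5000/well, DMEM + 10% FBS) seeded 24 h, then treated 48 h in triplicate at 0.01, 0.1, 1, 10, 100 μM; time-zero plate kept. MTT 3 h, formazan in DMSO read at 570 nm; GI50, TGI, LC50 derived.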

[2] = test system: HDAC (Mouse Liver Extract); experiment: Histone Deacetylase (HDAC) Inhibition Assay using Boc-Lys (Ac)-AMC Substrate; type: biochemical; conditions: mouse liver enzyme, NA = No Activity; for HDAC Inhibition 1 μM / HDAC Inhibition 10 μM: in % (unit assumed)
Procedure, shortened: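 Mouse liver extract was the HDAC source. It was preincubated with inhibitor for 5 min at 30° C, then incubated with Boc-Lys(Ac)-AMC substrate for 30 min at 30° C. Trypsin stop solution was added for a 20–30 min development step, and released AMC was read by fluorescence (ex 360/365, em 440/460 nm) with blank subtraction.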

[3] = test system: NCIH460, HCT116, MDAMB231/U251; experiment: Anti-cancer screen, mean GI50 over the cell lines; type: cell-based; conditions: in µM
Procedure, shortened: as §1

[4] = test system: HCT 116 cells; experiment: Anti-cancer screen (MTT), HCT116; type: cell-based; conditions: Homo sapiens, HCT-116, HCT116 cells, 48 hours, MTT; for GI50: concentration to decrease % growth by 50%; for IC100: concentration to decrease % growth by 100%, read-out: HCT116 TGI; for LC50: concentration to decrease % growth by 150%
Procedure, shortened: as §1

[5] = test system: NCIH 460 cells; experiment: Anti-cancer screen (MTT), NCIH460; type: cell-based; conditions: Homo sapiens, NCI-H460, NCIH460 cells, 48 hours, MTT; for GI50: concentration to decrease % growth by 50%; for IC100: concentration to decrease % growth by 100%, read-out: NCIH460 TGI; for LC50: concentration to decrease % growth by 150%
Procedure, shortened: as §1

SMILES | GI50 [1] [µM] | IC100 [1] [µM] | LC50 [1] [µM] | HDAC Inhibition 1 μM [2] | HDAC Inhibition 10 μM [2] | IC50 [2] [µM] | Mean GI50 [3] | GI50 [4] [µM] | IC100 [4] [µM] | LC50 [4] [µM] | GI50 [5] [µM] | IC100 [5] [µM] | LC50 [5] [µM]
O=C(CCCCCCC(=O)N1CCN(CC(=O)Nc2cccc(F)c2)CC1)NO [Example 36, 8-{4-[2-(3-Fluorophenyl-2-ylamino)-2-oxoethyl]piperazin-1-yl}-N-hydroxy-8-oxo octanamide] | 27 | 62 | > 100 | 98.2 | 72.99 | 0.95 | 39.67 | 40 | 82 | > 100 | 52 | > 100 | > 100
O=C(CN1CCN(C(=O)CCCCCNO)CC1)Nc1nc2ccccc2s1 [Example 26] | 27 | 85 | > 100 | – | 4.5 | – | 15 | 8.6 | > 100 | > 100 | 9.5 | 92 | > 100
O=C(CCCCCCC(=O)N1CCN(CC(=O)Nc2ccccc2)CC1)NO [Example 31, 8-{4-[2-(Phenyl-2-ylamino)-2-oxoethyl]piperazin-1-yl}-N-hydroxy-8-oxo octanamide] | 0.6 | 94 | > 100 | 45.20 | 84.96 | – | 40.20 | 60 | > 100 | > 100 | 60 | > 100 | > 100
COc1cc(CNC(=O)CN2CCN(C(=O)CCCCSC(C)=O)CC2)cc(OC)c1 [Example 20] | > 100 | > 100 | > 100 | 26.4 | 55.4 | – | >100 | > 100 | > 100 | > 100 | > 100 | > 100 | > 100
Cc1cccc2sc(NC(=O)CN3CCN(C(=O)CCCCCCC(=O)NOCc4ccccc4)CC3)nc12 [Example 40, 8-{4-[2-(4-Methyl-1,3-benzothiazol-2-ylamino)-2-oxoethyl]piperazin-1-yl}-N-hydroxybenzyl-8-oxo octanamide] | 0.1 | 0.5 | > 100 | – | 4.1 | – | 9.5 | 4.5 | 32 | > 100 | 24 | 85 | > 100
CC(=O)SCCCCCC(=O)N1CCN(CC(=O)Nc2nc(C)cs2)CC1 [Example 17, 2-[4-(6-Thioacetylhexanoyl)piperazin-1-yl]-N-(4-methyl-1,3-thiazol-2-yl)acetamide] | 67 | > 100 | > 100 | 68.04 | 96.19 | – | 33.50 | 26 | > 100 | > 100 | 7.5 | > 100 | > 100
